Data: article PMC5006990 (PLoS ONE, 2016)
≈ marks a conversion by molar mass, not a printed value. Like-named read-outs stand apart in the source and are kept apart here.

Tests used:
[1] = biological target: T1, MtbDHFR (Mycobacterium tuberculosis, UniProt P9WNX1); assay: biochemical; assay type: biochemical
[2] = test system: M. tuberculosis ATCC 35801 (strain Erdman); assay: Microtiter broth dilution MIC, Mtb Erdman; conditions: for MIC (μg/mL) Mtb: Erdmann strain (ATCC 35801), screening rounds 1 and 2; for MIC (μg/mL) Mtb Erdman: Table 1 panel
[3] = test system: Mtb 352; assay: microbe, parasite or virus in culture; assay type: cell-based, Mycobacterium tuberculosis; conditions: Mycobacterium tuberculosis, 352, read-out: MIC (μg/mL) Mtb 352
[4] = test system: Mtb 5; assay: microbe, parasite or virus in culture; assay type: cell-based, Mycobacterium tuberculosis; conditions: Mycobacterium tuberculosis, 5, read-out: MIC (μg/mL) Mtb 5
[5] = test system: Mtb C-31; assay: microbe, parasite or virus in culture; assay type: cell-based; conditions: Mycobacterium tuberculosis, C31, read-out: MIC (μg/mL) Mtb C-31
[6] = test system: Mtb 56; assay: microbe, parasite or virus in culture; assay type: cell-based, Mycobacterium tuberculosis; conditions: Mycobacterium tuberculosis, 56, read-out: MIC (μg/mL) Mtb 56
[7] = test system: Mtb 365; assay: microbe, parasite or virus in culture; assay type: cell-based, Mycobacterium tuberculosis; conditions: Mycobacterium tuberculosis, 365, read-out: MIC (μg/mL) Mtb 365
[8] = test system: M. smegmatis (parent strain); assay: MIC against M. smegmatis parent strain; conditions: Mycolicibacterium smegmatis, read-out: MIC (µg/mL) M. smegmatis (parent strain)
[9] = test system: M. smegmatis (Overexpressing DHFR Strain 2); assay: MIC against M. smegmatis overexpressing DHFR, strain 2; conditions: Mycolicibacterium smegmatis, read-out: MIC (µg/mL) M. smegmatis (Overexpressing DHFR Strain 2)
[10] = test system: Mtb 276; assay: microbe, parasite or virus in culture; assay type: cell-based, Mycobacterium tuberculosis; conditions: Mycobacterium tuberculosis, 276, read-out: MIC (μg/mL) Mtb 276
[11] = test system: M. smegmatis (Overexpressing DHFR Strain 1); assay: MIC against M. smegmatis overexpressing DHFR, strain 1; conditions: Mycolicibacterium smegmatis, read-out: MIC (µg/mL) M. smegmatis (Overexpressing DHFR Strain 1)
[12] = test system: Mtb; conditions: cited from earlier work; for inhibition of the growth of Mtb: in words
[13] = biological target: T1, MtbDHFR; conditions: in words; cited from earlier work
[14] = biological target: T2, HuDHFR (Homo sapiens, UniProt P00374); assay: Human DHFR enzyme inhibition (NADPH oxidation at 340 nm); assay type: biochemical; conditions: triplicate, mean ± SD
T2 construct: made in house
T2 sequence (P00374 1-187): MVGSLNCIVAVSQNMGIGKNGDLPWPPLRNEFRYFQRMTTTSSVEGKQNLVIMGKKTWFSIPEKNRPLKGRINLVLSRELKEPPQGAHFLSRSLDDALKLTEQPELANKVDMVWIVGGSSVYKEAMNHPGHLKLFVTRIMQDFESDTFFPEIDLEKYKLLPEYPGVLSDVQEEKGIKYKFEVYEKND

T1 sequence (P9WNX1 whole entry): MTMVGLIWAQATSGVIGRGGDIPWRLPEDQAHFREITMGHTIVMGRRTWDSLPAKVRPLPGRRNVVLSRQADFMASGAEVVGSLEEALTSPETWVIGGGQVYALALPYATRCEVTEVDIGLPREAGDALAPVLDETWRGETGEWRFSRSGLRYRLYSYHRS

CCc1nc(N)nc(N)c1C#CCc1cc(OC)cc(-c2ccc(C(=O)O)cc2)c1 [UCP1175]
IC50 ([1]; IC50 (nM) MtbDHFR): 460 ± 50 nM
MIC (μg/mL) Mtb [2]: 0.125 µg/mL (≈ 0.311 µM)
MIC (μg/mL) Mtb Erdman [2]: 0.5 µg/mL (≈ 1.24 µM)
MIC [3]: 0.5 µg/mL (≈ 1.24 µM)
MIC [4]: 2 µg/mL (≈ 4.97 µM)
MIC [5]: 8 µg/mL (≈ 19.9 µM)
MIC [6]: 0.5 µg/mL (≈ 1.24 µM)
MIC [7]: 0.125 µg/mL (≈ 0.311 µM)

CCc1nc(N)nc(N)c1C#CCc1cc(-c2ccc(C(=O)O)cc2)ccc1OC [UCP1106]
MIC (μg/mL) Mtb [2]: 4 µg/mL (≈ 9.94 µM)
MIC (μg/mL) Mtb Erdman [2]: 16 µg/mL (≈ 39.8 µM)
MIC [3]: 16 µg/mL (≈ 39.8 µM)
MIC [8]: 8 µg/mL (≈ 19.9 µM)
MIC [4]: 8 µg/mL (≈ 19.9 µM)
MIC [5]: > 32 µg/mL
MIC [9]: > 32 µg/mL
MIC [6]: 16 µg/mL (≈ 39.8 µM)
MIC [10]: 16 µg/mL (≈ 39.8 µM)
MIC [11]: > 32 µg/mL
MIC [7]: 4 µg/mL (≈ 9.94 µM)

NNC(=O)c1ccncc1 [INH, Isoniazid, reference compound]
MIC (μg/mL) Mtb [2]: 0.03 µg/mL (≈ 0.219 µM)
MIC (μg/mL) Mtb Erdman [2]: 0.125 µg/mL (≈ 0.911 µM)
MIC [3]: 1 µg/mL (≈ 7.29 µM)
MIC [4]: 4 µg/mL (≈ 29.2 µM)
MIC [5]: 4 µg/mL (≈ 29.2 µM)
MIC [6]: 1 µg/mL (≈ 7.29 µM)
MIC [7]: 2 µg/mL (≈ 14.6 µM)

CCc1nc(N)nc(N)c1-c1ccc(Cl)cc1 [pyrimethamine]
inhibition of the growth of Mtb [12]: fail to inhibit the growth
inhibition of the MtbDHFR enzyme [13]: potent inhibitors

CCc1nc(N)nc(N)c1C#CC(C)c1cc2c(c(-c3cncn3C)c1)OCO2 (stereo not shown) [UCP1102]
MIC (μg/mL) Mtb [2]: 2 µg/mL (≈ 5.12 µM)
MIC (μg/mL) Mtb Erdman [2]: 4 µg/mL (≈ 10.2 µM)
MIC [3]: 4 µg/mL (≈ 10.2 µM)
MIC [8]: 1 µg/mL (≈ 2.56 µM)
MIC [4]: 8 µg/mL (≈ 20.5 µM)
MIC [5]: 8 µg/mL (≈ 20.5 µM)
MIC [9]: 32 µg/mL (≈ 82 µM)
MIC [6]: 8 µg/mL (≈ 20.5 µM)
MIC [10]: 4 µg/mL (≈ 10.2 µM)
MIC [11]: 64 µg/mL (≈ 164 µM)
MIC [7]: 8 µg/mL (≈ 20.5 µM)

COc1cc(Cc2cnc(N)nc2N)cc(OC)c1OC [TMP, reference compound]
MIC (μg/mL) Mtb [2]: 256 µg/mL (≈ 882 µM)

CCc1nc(N)nc(N)c1C#C[C@H](C)c1cc(OC)cc(-c2ccc(C(=O)O)cc2)c1 [UCP1172]
MIC (μg/mL) Mtb [2]: <0.03 µg/mL
MIC (μg/mL) Mtb Erdman [2]: <0.03 µg/mL
MIC [3]: 0.06 µg/mL (≈ 0.144 µM)
MIC [4]: 0.25 µg/mL (≈ 0.6 µM)
MIC [5]: 8 µg/mL (≈ 19.2 µM)
MIC [6]: 0.06 µg/mL (≈ 0.144 µM)
MIC [7]: < 0.03 µg/mL

CCc1nc(N)nc(N)c1C#C[C@H](C)c1cc(-c2ccncc2)ccc1OC [UCP1063]
MIC (μg/mL) Mtb [2]: 2 µg/mL (≈ 5.36 µM)

CCc1nc(N)nc(N)c1C#C[C@H](C)c1cc2c(c(-c3ccncc3)c1)OCO2 [UCP1098]
IC50 [1]: 206 ± 6 nM
MIC (μg/mL) Mtb [2]: 4 µg/mL (≈ 10.3 µM)
MIC (μg/mL) Mtb Erdman [2]: 8 µg/mL (≈ 20.6 µM)
MIC [3]: 8 µg/mL (≈ 20.6 µM)
MIC [8]: 0.5 µg/mL (≈ 1.29 µM)
MIC [4]: 8 µg/mL (≈ 20.6 µM)
MIC [5]: 16 µg/mL (≈ 41.3 µM)
MIC [9]: 32 µg/mL (≈ 82.6 µM)
MIC [6]: 8 µg/mL (≈ 20.6 µM)
MIC [10]: 8 µg/mL (≈ 20.6 µM)
MIC [11]: 64 µg/mL (≈ 165 µM)
MIC [7]: 4 µg/mL (≈ 10.3 µM)

CCc1nc(N)nc(N)c1C#CC(C)c1cc(-c2cncn2C)ccc1OC (stereo not shown) [UCP1084]
MIC (μg/mL) Mtb [2]: 2 µg/mL (≈ 5.31 µM)
MIC (μg/mL) Mtb Erdman [2]: 4 µg/mL (≈ 10.6 µM)
MIC [3]: 4 µg/mL (≈ 10.6 µM)
MIC [8]: 1 µg/mL (≈ 2.66 µM)
MIC [4]: 4 µg/mL (≈ 10.6 µM)
MIC [5]: 8 µg/mL (≈ 21.3 µM)
MIC [9]: 16 µg/mL (≈ 42.5 µM)
MIC [6]: 4 µg/mL (≈ 10.6 µM)
MIC [10]: 4 µg/mL (≈ 10.6 µM)
MIC [11]: 64 µg/mL (≈ 170 µM)
MIC [7]: 4 µg/mL (≈ 10.6 µM)

CCc1nc(N)nc(N)c1C#CCc1cc(OC)c(OC)c(-c2ccncc2)c1 [UCP1039]
IC50 ([1]; triplicate, mean ± SD, read-out: IC50 (nM) MtbDHFR): 297 ± 38 nM
MIC (μg/mL) Mtb [2]: 32 µg/mL (≈ 82.2 µM)
IC50 [14]: 495 ± 58 nM

COc1cc(NCc2ccc3nc(N)nc(N)c3c2C)cc(OC)c1OC [Trimetrexate]
inhibition of the growth of Mtb [12]: fail to inhibit the growth
MIC (μg/mL) Mtb [2]: 4 µg/mL (≈ 10.8 µM)
inhibition of the MtbDHFR enzyme [13]: potent inhibitors

CCc1nc(N)nc(N)c1C#C[C@H](C)c1cc(-c2ccc(C(=O)O)cc2)ccc1OC [UCP1163]
MIC (μg/mL) Mtb [2]: 16 µg/mL (≈ 38.4 µM)

Nc1nc(N)c2c(Cl)c(CNc3ccc(C(=O)O)cc3)ccc2n1 [DQn-1]
MIC ([12]; Glaxo antifolate collection screen): 0.03 µM
MIC ([12]; Glaxo antifolate library screen): 0.03 µg/mL

CCc1nc(N)nc(N)c1C#C[C@@H](C)c1cc(-c2ccc(C(=O)O)cc2)ccc1OC [UCP1164]
MIC (μg/mL) Mtb [2]: 0.5 µg/mL (≈ 1.2 µM)

CN(Cc1cnc2nc(N)nc(N)c2n1)c1ccc(C(=O)N[C@@H](CCC(=O)O)C(=O)O)cc1 [Methotrexate]
inhibition of the growth of Mtb [12]: fail to inhibit the growth
